The values that follow come from patent publication US8846671B2, “Heterocyclic alkynyl benzene compounds and medical compositions and uses thereof” (Guangzhou Institute of Biomedicine and Health, Chinese …, priority 2010, dated 2014).

In data set [1] the test system is K562 (human chronic myelogenous leukemia cell line). Kind of data set: tumor cell proliferation, MTT or CCK8 assay, 72 h incubation. Type of data set: cell-based. To be noted: K562, 72 h, read-out: IC50 on tumor cell proliferation, K562. An outline of the steps:
(§1)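 Leukemia cell lines were exposed to compounds at 1×10^−10˜1×10^−5M for 72 h. Proliferation was read by MTT (570 nm) or CCK8 (450/650 nm) after a further 4 h incubation. IC50 values were calculated from inhibition of proliferation.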

Data set [2] deals with L78 (Lung cancer cell line). Described as above. Type of data set: cell-based. The conditions noted are these: Homo sapiens, read-out: IC50 on tumor cell proliferation, L78.
Data set [3] concerns MEG-01 (Human megakaryoblastic leukaemia cell line). The description is as above. To be noted: MEG-01, 72 h, read-out: IC50 on tumor cell proliferation, MEG-01. Type of data set: cell-based. The gist of the method: as §1
Data set [4] relates to MOLT-4 (Human acute lymphoblastic leukemia cell line). Described as above. Type of data set: cell-based. To be noted: MOLT-4, 72 h, read-out: IC50 on tumor cell proliferation, MOLT-4. The gist of the method: as §1
In a further data set the test system is U937 Cell line. The description is as above. Type of data set: cell-based. The conditions noted are these: Homo sapiens, U-937, 72 h, read-out: IC50 on tumor cell proliferation, U937. The gist of the method: as §1
The subject of data set [5] is K562R cells (imatinib-resistant cell line). The data set is described as above. Type of data set: cell-based. To be noted: Homo sapiens, K-562R, read-out: IC50 on tumor cell proliferation, K562R cells.
Data set [6] has as its target BAF3-T315I cells (Ba/F3 cell line stably expressing BCR/ABL T315I) (Homo sapiens, UniProt P00519, T315I, cells depend on it). The description is as above. Type of data set: cell-based, mice. To be noted: read-out: IC50 on tumor cell proliferation, BAF3-T315I cells; Ba/F3 expressing BCR/ABL T315I, 72 h, Table 1.
A short description of data set [7]: Pharmacokinetics and bioavailability in rats. Type of data set: in vivo. The conditions noted are these: SD rats; for pharmacokinetics parameters, overall judgement: corresponding pharmaceutical acceptable salt forms; for Cmax: read-out: Cmax; for bioavailability: read-out: BA(% Oral bioavailability). An outline of the steps:
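Rats dosed, heparinized blood sampled at set times, plasma stored at -20 °C, acetonitrile-precipitated and analyzed by HPLC-MS. Compartmental and non-compartmental parameters derived; bioavailability from AUC.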

The test system of data set [8] is K562 cells (human CML cell line expressing native Bcr-Abl). Description: Xenograft model of K562 in nude mice, oral dosing. The conditions noted are these: for anti-tumor effect compared with imatinib / effect on body weight: po, qd. As for the experimental part: Tumor volume and body weight were monitored once every 2 days (In each group, the tumor volume and body weight at beginning of the day were recorded). Tumor volume was calculated as […]*a*b*b.L×W2/2 (a and b are the length and width of the tumor, respectively). […] The results were shown in Drawings as FIGS. 1, 2, 3, 4, 5, 6, 7 and 8.

In data set [9] the test system is Ba/F3-Bcr/ABL-T315I cells. Kind of data set: Xenograft model of BAF3-T315I in SCID nude mice, oral dosing. As for the experimental part:
When the mean tumor volume reached 300-500 mm^3, mice were grouped and administered orally. […] Tumor volume and body weight were monitored once every 2 days (In each group, the tumor volume and body weight at beginning of the day were recorded). Tumor volume was calculated as π/6*a*b*b.L×W2/2 (a and b are the length and width of the tumor, respectively). […] The results were shown in Drawings as FIG. 9, 10, 11, 12, 13, 14, 15, 16.

Where [10] appears, read: both sexes, Sprague-Dawley, rat, plasma, iv, 10 mg/kg, IV 10 mg/kg.
Setting [11] is: both sexes, Sprague-Dawley, rat, plasma, iv, 10 mg/kg, IV 10 mg/kg, read-out: Tmax.
The mark [12] stands for this setting: both sexes, Sprague-Dawley, rat, plasma, po, 25 mg/kg, PO 25 mg/kg.
Where [13] appears, read: both sexes, Sprague-Dawley, rat, plasma, po, 25 mg/kg, PO 25 mg/kg, read-out: Tmax.
[14] abbreviates: both sexes, Sprague-Dawley, rat, plasma, po, calculated according to AUC data, PO vs IV.
[15] abbreviates: Ba/F3-Bcr/ABL-T315I xenograft, 25 mg/kg po, q2d or qd.
Setting [16] is: both sexes, Sprague-Dawley, rat, plasma, iv, 5 mg/kg, IV 5 mg/kg.
Where [17] appears, read: both sexes, Sprague-Dawley, rat, plasma, iv, 5 mg/kg, IV 5 mg/kg, read-out: Tmax.
[18] abbreviates: 20 mg/kg po, q2d or qd (Example 51).

Where a name gives a salt, the structure may show the parent alone. Read-outs that look alike come from different tables or passages of the source.

As to `Cc1cn(-c2cc(NC(=O)c3ccc(C)c(C#Cc4cnc(NC5CC5)nc4)c3)cc(C(F)(F)F)c2)cn1` [D747, 3-(2-(2-(cyclopropylamino)pyrimidin-5-yl)ethynyl)-4-methyl-N-(3-(4-methyl-1H-imidazol-1-yl)-5-(trifluoromethyl)phenyl)benzamide], the IC50 was 0.0026 µM in data set [1]; 10.6 µM in [2]; 7.54 µM in [3]; more than 10 µM in data set [4]; 11.5 µM with U937 Cell line; 0.096 µM in data set [5]. For the same compound, the GI50 in [6] was found to be 0.0997 µM. The “pharmacokinetics parameters, overall judgement” value (shortened to “pharmacokinetics parameters”) in data set [7] was “adequate pharmacokinetics parameters”.

On to `CCNc1ncc(C#Cc2cc(C(=O)Nc3cc(-n4cnc(C)c4)cc(C(F)(F)F)c3)ccc2C)cn1` [D755, 3-(2-(2-(ethylamino)pyrimidin-5-yl)ethynyl)-4-methyl-N-(3-(4-methyl-1H-imidazol-1-yl)-5-(trifluoromethyl)phenyl)benzamide], for which the IC50 is 0.0076 µM in data set [1]; 11.8 µM in data set [2]; more than 10 µM in [3]; more than 10 µM in [4]; more than 10 µM in the data set on U937 Cell line; 0.22 µM in data set [5]. For the same compound, the GI50 in data set [6] was 0.061 µM. The “pharmacokinetics parameters” value in data set [7] is “adequate pharmacokinetics parameters”.

As to `Cc1cn(-c2cc(NC(=O)c3ccc(C)c(C#Cc4cnc(NC5CC5)nc4)c3)cc(C(F)(F)F)c2)cn1` [D747 hydrochloride salt, 3-(2-(2-(cyclopropylamino)pyrimidin-5-yl)ethynyl)-4-methyl-N-(3-(4-methyl-1H-imidazol-1-yl)-5-(trifluoromethyl)phenyl)benzamide], in data set [8] (25 mg/kg po qd), the “effect on tumor growth” value was “completely inhibit the tumor growth”. In addition, in data set [8], the “anti-tumor effect compared with imatinib” value is “better anti-tumor effect than imatinib” and the “effect on body weight” value is reported as “did not cause the body weight loss”. Further, the “BA(% Oral bioavailability)” value in [7] (calculated according to AUC data, PO vs IV) is recorded as 35.3%. For the same compound, in [7] (setting [10]), the AUC(0-inf) (usually the area under the concentration-time curve extrapolated to infinity) is 285000 ng·h/mL; the half-life – broadly, the time in which the quantity being followed falls by half – was 71.8 h; the Cmax (in general, the maximum level reached in the sampled fluid or tissue) came out at 49800 ng/mL. In addition, the Tmax (as a rule, the time from dosing to the highest level) in data set [7] (setting [11]) amounted to 0.033 h. In [7] (setting [12]), the AUC(0-inf) amounted to 252000 ng·h/mL, the half-life was 48.7 h and the Cmax was determined as 6200 ng/mL. In addition, the Tmax in [7] (setting [13]) stood at 4.5 h.

`Cc1cn(-c2cc(NC(=O)c3ccc(C)c(C#Cc4cnc5ccnn5c4)c3)cc(C(F)(F)F)c2)cn1` [D822 mesylate salt, 4-methyl-N-(3-(4-methyl-1H-imidazol-1-yl)-5-(trifluoromethyl)phenyl)-3-(2-(pyrazolo[1,5-a]pyrimidin-6-yl)ethynyl)benzamide]: the “effect on tumor growth” value in data set [8] (25 mg/kg po qd) was “completely inhibit the tumor growth”. Moreover, in [8], the “anti-tumor effect compared with imatinib” value was “better anti-tumor effect than imatinib” and the “effect on body weight” value is on record as “did not cause the body weight loss”. Further, in data set [7] (setting [10]), the AUC(0-inf) stood at 13800 ng·h/mL, the half-life was 3.15 h and the Cmax came to 23100 ng/mL. In data set [7] (setting [11]), the Tmax amounted to 0.033 h. In data set [7] (setting [12]), the AUC(0-inf) amounted to 10700 ng·h/mL, the half-life was 8.04 h and the Cmax was found to be 814 ng/mL. The Tmax in data set [7] (setting [13]) was found to be 3 h. The bioavailability (in general, dose-corrected exposure relative to a reference, in per cent) in data set [7] (setting [14]) was 31.2%.

For the compound `Cc1cn(-c2cc(NC(=O)c3ccc(C)c(C#Cc4cnc(NC(C)C)nc4)c3)cc(C(F)(F)F)c2)cn1` [D752, 3-(2-(2-(isopropylamino)pyrimidin-5-yl)ethynyl)-4-methyl-N-(3-(4-methyl-1H-imidazol-1-yl)-5-(trifluoromethyl)phenyl)benzamide], the IC50 in [1] is 0.00348 µM; in [2], more than 10 µM; in data set [3], 22.6 µM; in [4] it was 12.7 µM; with U937 Cell line, 8.99 µM; in [5], 0.84 µM. Besides, in data set [6], the GI50 was found to be 1.03 µM. In addition, in data set [7], the “pharmacokinetics parameters” value is reported as “adequate pharmacokinetics parameters”.

For the compound `Cc1ccc(C(=O)Nc2ccc(CN3CCN(C)CC3)c(C(F)(F)F)c2)cc1C#Cc1cnc2[nH]ncc2c1` [D824 dimesylate salt, 3-(2-(1H-pyrazolo[3,4-b]pyridin-5-yl)ethynyl)-4-methyl-N-(4-((4-methylpiperazin-1-yl)methyl)-3-(trifluoromethyl)phenyl)benzamide dimesylate], the “effect on tumor growth” value in data set [8] (5 mg/kg po qd) was “completely inhibit the tumor growth”; in data set [9] (setting [15]) it was “almost completely suppressed the tumor growth”. For the same compound, the “effect on body weight” value was “did not cause the body weight loss” in data set [8] and “help the body weight gain” in data set [9] (setting [15]). The Tmax was 4.25 h in data set [7] (PO 25 mg/kg, dimesylate, 25 mg/kg) and 0.033 h in [7] (setting [17]). Further, the AUC(0-inf) in [7] (setting [16]) stood at 4300 ng·h/mL; in data set [7] (setting [12]), 12600 ng·h/mL. The values for the half-life in data set [7] (setting [16]) and in data set [7] (setting [12]) were 6.1 h and 8.72 h, respectively. Further, the Cmax in [7] (setting [16]) worked out at 2240 ng/mL; in data set [7] (setting [12]) it was 775 ng/mL. The bioavailability in data set [7] (setting [14]) is 58.7%.

Turning to `Cc1ccc(C(=O)Nc2ccc(CN3CCN(C)CC3)c(C(F)(F)F)c2)cc1C#Cc1cnc2ccnn2c1` [D856 dimesylate salt, 4-methyl-N-(4-((4-methylpiperazin-1-ylmethyl)-3-(trifluoromethyl)phenyl)-3-(2-(pyrazolo[1,5-a]pyrimidin-6-yl)ethynyl)benzamide dimesylate], the “effect on tumor growth” value in data set [9] (setting [18]) is reported as “inhibit the tumor growth”. In data set [7] (setting [16]), the AUC(0-inf) stood at 8170 ng·h/mL, the half-life is 20 h and the Cmax is 934 ng/mL. Moreover, in [7] (setting [17]), the time to peak (Tmax) was found to be 0.033 h. Further, in data set [7] (setting [12]), the AUC(0-inf) was found to be 31800 ng·h/mL, the half-life was 22.2 h and the Cmax was found to be 900 ng/mL. Moreover, the Tmax in [7] (setting [13]) stood at 6.5 h. For the same compound, in data set [7] (setting [14]), the bioavailability is 78%.

Turning to `Cc1cn(-c2cc(NC(=O)c3ccc(C)c(C#Cc4cnc5[nH]ncc5c4)c3)cc(C(C)(C)C)c2)cn1` [D968 mesylate, 3-(2-(1H-pyrazolo[3,4-b]pyridin-5-yl)ethynyl)-N-(3-tert-butyl-5-(4-methyl-1H-imidazol-1-yl)phenyl)-4-methylbenzamide mesylate], in [9] (setting [18]), the “effect on tumor growth” value is listed as “inhibit the tumor growth”.
